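A five-concentration, 48-hour dose response in 96-well plates underlies each endpoint, interpolated linearly between surrounding concentrations. At the TGI there is no net growth.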
Legend:
Experiment in all cases: DTP human tumour cell line panel, 48 h
[1] = tested on: HS 578T breast
[2] = tested on: BT-549 breast
[3] = tested on: ACHN renal
[4] = tested on: HT29 colon
[5] = tested on: OVCAR-5 ovarian
[6] = tested on: HCT-116 colon
[7] = tested on: OVCAR-3 ovarian
[8] = tested on: TK-10 renal
[9] = tested on: NCI-H522 lung
[10] = tested on: SR leukemia

Compound | TGI [1] [µM] | TGI [2] [µM] | TGI [3] [µM] | TGI [4] [µM] | TGI [5] [µM] | TGI [6] [µM] | TGI [7] [µM] | TGI [8] [µM] | TGI [9] [µM] | TGI [10] [µM]
CC(=N/NC(=S)N1CCCCCC1)/C(C)=N\NC(=S)N1CCCCCC1 | 11.8 | 11 | 9.67 | 7.08 | > 23.5 | > 20.8 | 14.3 | 8.87 | 8.97 | 
[N-]=[N+]=CC(=O)C1(C(=O)C=[N+]=[N-])CC1 |  |  | > 100 | > 100 | > 100 | > 100 | > 100 | > 100 | > 100 | > 100
C/C=C1\CC(C(=O)OCC)CCCCCCC1=O (stereo unspecified) | > 100 | > 100 | > 100 | > 100 | > 100 | > 100 |  | > 100 | > 100 | 
Cc1nc2cn3c(c2c(=O)[nH]1)CCCCC3 | > 100 | > 100 | > 100 | > 100 |  | > 100 |  | > 100 |  | > 100
CCCCn1c(-c2ccccc2)cs/c1=N\N=C1C=C(C(C)(C)C)C(=O)C(C(C)(C)C)=C1 |  |  | > 100 | > 100 | > 100 | > 100 | > 100 | > 100 |  | > 100
O=c1oc2cc(O)ccc2c2[nH]c3cc(O)ccc3c12 |  |  | 62.5 | > 100 |  | 31.5 | 56.5 | > 100 | 32.9 | > 100
O=Cc1c2c(cc3c1CC1(C3)Cc3cc4c(c(C=O)c3C1)CCCC4)CCCC2 | > 31.6 |  | > 31.6 | > 31.6 | > 31.6 | > 31.6 | > 31.6 | > 31.6 | 27.3 | 22.2
CC1CC(=O)Nc2ccc(Cl)cc2N1C(=O)CN1CCC(CCCCN(C)C)CC1 (stereo unspecified) |  |  | > 100 | > 100 | > 100 | > 100 | > 100 | > 100 |  | > 100
Oc1ccc(-c2c3ccccc3c(-c3ccc(O)cc3)c3ccccc23)cc1 |  |  | > 100 | > 100 | > 100 | > 100 | > 100 | > 100 | > 100 | > 100
COc1ccccc1-n1cnc2c1NC(C)(C)N=C2C(N)=O | > 100 |  | > 100 | > 100 | > 100 | > 100 | > 100 | > 100 | > 100 | > 100
COC(=O)[C@H](CNC(=O)/C=C/c1ccc(OC(C)=O)c(OC(C)=O)c1)NC(=O)/C=C/c1ccc(OC(C)=O)c(OC(C)=O)c1 | > 100 | > 100 | > 100 | > 100 | > 100 | > 100 | > 100 |  |  | > 100
COC1(OC)CC2C(=O)N(Cc3ccccc3)C1C(S(=O)(=O)c1ccccc1)C2C(C)S(=O)(=O)c1ccccc1 (stereo unspecified) |  |  | > 100 | > 100 | > 100 | > 100 | > 100 | > 100 | > 100 | > 100
Cc1ccc2nc(N)[nH]c(=O)c2c1Sc1ccncc1 |  |  | > 100 | > 100 | > 100 | > 100 | > 100 | > 100 | > 100 | > 100
CCOC(=O)/C=C/n1c2ccccc2c(=O)c2cc(OC)ccc21 |  |  | > 100 | > 100 | > 100 | > 100 | > 100 | > 100 | > 100 | > 100
CCN(CC)CC1CCCCN1CC(=O)N1c2cc(Cl)ccc2NC(=O)CC1C (stereo unspecified) |  |  | > 100 |  | > 100 | > 100 | > 100 | > 100 | > 100 | > 100
CC1(CO)C(O)CCC2(C)C1CCC1CC3CC12CCC3(O)CO (stereo unspecified) |  |  |  | > 100 | > 100 | > 100 | > 100 |  | > 100 | 
c1ccc2c(c1)nnn2CNc1ccc(N2CCCCC2)cc1 |  |  | > 100 | > 100 |  | > 100 | > 100 | > 100 | > 100 | > 100
CC(=O)Nc1ccc(-c2nnc(SCC(=O)Nc3cccc(C)c3)o2)cc1 |  |  | 22.5 | 25.4 | 26.7 | 24.1 | 24.2 | 29.2 | 16.7 | > 100
O=C(N/N=C(/COc1ccccc1)N=Cc1ccncc1)c1ccncc1 | > 100 | > 100 | > 100 | > 100 | > 100 | > 100 | > 100 | > 100 |  | 

From PubChem BioAssay (NCI)
